From ChEMBL document CHEMBL1201862, “PubChem BioAssay data set” (2004)
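Step 1: Grow cells in 96-well plates. Step 2: Expose to compound for 48 hours at 5 concentrations. Step 3: Interpolate endpoints linearly; if unreached, use highest concentration. Abbreviation: GI50, concentration required for 50% inhibition of growth.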 The source made the active and inactive calls. Cut-off read from the data, not from the text of the source: active = GI50 up to about 1.1 µM and inactive = higher.

Legend:
Test in all cases: NCI tumour cell line growth inhibition, 48 h
HOP-62 = system: HOP-62
SK-MEL-2 = system: SK-MEL-2
OVCAR-4 = system: OVCAR-4
RPMI-8226 = system: RPMI-8226
RXF 393 = system: RXF 393
NCI-H460 = system: NCI-H460
HL-60 = system: HL-60
UO-31 = system: UO-31
U-251 = system: U-251
MDA-MB-435 = system: MDA-MB-435
NCI/ADR-RES = system: NCI/ADR-RES
TK-10 = system: TK-10
SW-620 = system: SW-620
SN12C = system: SN12C
CCRF-CEM = system: CCRF-CEM
LOX IMVI = system: LOX IMVI
SF-539 = system: SF-539
BT-549 = system: BT-549
T47D = system: T47D
OVCAR-3 = system: OVCAR-3

SMILES	GI50 (HOP-62)	GI50 (SK-MEL-2)	GI50 (OVCAR-4)	GI50 (RPMI-8226)	GI50 (RXF 393)	GI50 (NCI-H460)	GI50 (HL-60)	GI50 (UO-31)	GI50 (U-251)	GI50 (MDA-MB-435)	GI50 (NCI/ADR-RES)	GI50 (TK-10)	GI50 (SW-620)	GI50 (SN12C)	GI50 (CCRF-CEM)	GI50 (LOX IMVI)	GI50 (SF-539)	GI50 (BT-549)	GI50 (T47D)	GI50 (OVCAR-3)
O=S(=O)(NNc1ccccc1)c1ccccc1	12.4 µM (inactive)	3.26 µM (inactive)	2.62 µM (inactive)	3.71 µM (inactive)	7.73 µM (inactive)	3.96 µM (inactive)	1.66 µM (inactive)	10.6 µM (inactive)	16.2 µM (inactive)	4.81 µM (inactive)	10 µM (inactive)	> 100 µM (inactive)	26.3 µM (inactive)	4.49 µM (inactive)	14.3 µM (inactive)	0.834 µM (active)	32.7 µM (inactive)	19.2 µM (inactive)	12.6 µM (inactive)	11.3 µM (inactive)
CCOC(=O)/C=C\[C@H]1OC(C)(C)O[C@H]1[C@H](O)[C@H]1COC(C)(C)O1	66.4 µM (inactive)	22.3 µM (inactive)	19.3 µM (inactive)	19.8 µM (inactive)	20 µM (inactive)	27 µM (inactive)	22.8 µM (inactive)	18.4 µM (inactive)	17.7 µM (inactive)	17.3 µM (inactive)	32.5 µM (inactive)	16.1 µM (inactive)	19.6 µM (inactive)	17.4 µM (inactive)	10.5 µM (inactive)	20 µM (inactive)	17.7 µM (inactive)	22 µM (inactive)	20.5 µM (inactive)	17.4 µM (inactive)
CC(C)OC(=O)c1cc(NC(=S)OC(C)C)ccc1Cl	90.4 µM (inactive)	22.4 µM (inactive)	23.9 µM (inactive)	24.6 µM (inactive)	22.3 µM (inactive)	> 39 µM (inactive)	16.3 µM (inactive)	20.8 µM (inactive)	22.9 µM (inactive)	17.1 µM (inactive)	20.7 µM (inactive)	22.8 µM (inactive)	28.4 µM (inactive)	13.4 µM (inactive)	39.3 µM (inactive)	17.2 µM (inactive)	14.8 µM (inactive)	18.2 µM (inactive)	23 µM (inactive)	25.6 µM (inactive)
COc1cc2c(cc1OC)-c1[nH]c3ccc([N+](=O)[O-])cc3c1CC(=O)N2	3.1 µM (inactive)	3.7 µM (inactive)	3.19 µM (inactive)	3.6 µM (inactive)	1.43 µM (inactive)	1.95 µM (inactive)	2.94 µM (inactive)	2.36 µM (inactive)	3.32 µM (inactive)	1.71 µM (inactive)	> 100 µM (inactive)	2.37 µM (inactive)	0.849 µM (active)	2.37 µM (inactive)	0.975 µM (active)	1.55 µM (inactive)	0.316 µM (active)	3.15 µM (inactive)	7.28 µM (inactive)	0.726 µM (active)
CC(=O)Nc1cc(/C=C\C(=O)N2CC(CCl)c3c2cc(N)c2ccccc32)n(C)n1 (stereo not given)	0.00347 µM (active)	0.0166 µM (active)	0.017 µM (active)	0.0179 µM (active)	< 0.001 µM (active)	< 0.001 µM (active)	< 0.001 µM (active)	0.00284 µM (active)	0.0031 µM (active)	0.0169 µM (active)	0.0216 µM (active)	0.0191 µM (active)	0.0123 µM (active)	< 0.001 µM (active)	< 0.001 µM (active)	0.00879 µM (active)	0.00621 µM (active)	0.0199 µM (active)	0.00299 µM (active)	0.0164 µM (active)
CCn1cc(C(=O)O)c(=O)c2cc(F)c(N3CCN(CN4C(=O)/C(=N\c5ncc(Cc6cc(OC)c(OC)c(OC)c6)c(N)n5)c5cc(Cl)ccc54)CC3)cc21	> 100 µM (inactive)	> 100 µM (inactive)	> 100 µM (inactive)	0.0399 µM (active)	> 100 µM (inactive)	> 100 µM (inactive)	20 µM (inactive)	> 100 µM (inactive)	61.4 µM (inactive)	33.3 µM (inactive)	> 100 µM (inactive)	83 µM (inactive)	5.3 µM (inactive)	> 100 µM (inactive)	91 µM (inactive)	> 100 µM (inactive)	> 100 µM (inactive)	> 100 µM (inactive)	> 100 µM (inactive)	> 100 µM (inactive)
COc1ccccc1C1c2cc3c(cc2OC2(OC)COC(=O)C12)OCO3 (stereo not given)	22.2 µM (inactive)	7.43 µM (inactive)	19.1 µM (inactive)	8.07 µM (inactive)	12.3 µM (inactive)	15.3 µM (inactive)	3.03 µM (inactive)	14.6 µM (inactive)	14.2 µM (inactive)	2.27 µM (inactive)	6.55 µM (inactive)	39.4 µM (inactive)	6.7 µM (inactive)	18.7 µM (inactive)	12.9 µM (inactive)	9.02 µM (inactive)	12.3 µM (inactive)	17.9 µM (inactive)	34.5 µM (inactive)	9.57 µM (inactive)
